Reference: ChEMBL document CHEMBL1201862, “PubChem BioAssay data set” (2004)
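Growth conditions: 96-well plates. Treatment: test compound, 48 hours, 5 concentrations. Analysis: linear interpolation between bracketing concentrations; unreached endpoints set to highest concentration. GI50 marks 50% less growth.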 Active and inactive are the calls of the source. No stated cut-off is given here; in the data, active = GI50 up to about 1.1 µM and inactive = higher.

Assays:
Experiment in all cases: NCI anticancer screen, dose series, 48 h
[1] = tested on: A498
[2] = tested on: HCT-116
[3] = tested on: HOP-62
[4] = tested on: HT-29
[5] = tested on: M19-MEL
[6] = tested on: MOLT-4
[7] = tested on: Malme-3M
[8] = tested on: OVCAR-3
[9] = tested on: RXF 393
[10] = tested on: SN12C
[11] = tested on: SNB-78
[12] = tested on: SW-620
[13] = tested on: UACC-257
[14] = tested on: UACC-62
[15] = tested on: UO-31
[16] = tested on: SK-MEL-28

## CCC(=O)N1C(=O)OCC1C(C)C (centres undefined)
[1]
  GI50: > 100 µM (inactive)
[2]
  GI50: > 100 µM (inactive)
[3]
  GI50: > 100 µM (inactive)
[4]
  GI50: > 100 µM (inactive)
[5]
  GI50: > 100 µM (inactive)
[6]
  GI50: > 100 µM (inactive)
[7]
  GI50: > 100 µM (inactive)
[8]
  GI50: > 100 µM (inactive)
[9]
  GI50: > 100 µM (inactive)
[10]
  GI50: > 100 µM (inactive)
[11]
  GI50: > 100 µM (inactive)
[12]
  GI50: > 100 µM (inactive)
[13]
  GI50: > 100 µM (inactive)
[14]
  GI50: > 100 µM (inactive)
[15]
  GI50: > 100 µM (inactive)

## O=C(c1cc(O)ccc1O)c1ccccc1C(Cl)(Cl)Cl
[1]
  GI50: 82.8 µM (inactive)
[2]
  GI50: > 100 µM (inactive)
[3]
  GI50: > 100 µM (inactive)
[4]
  GI50: > 100 µM (inactive)
[5]
  GI50: 90.8 µM (inactive)
[6]
  GI50: 33 µM (inactive)
[7]
  GI50: > 100 µM (inactive)
[8]
  GI50: 79.1 µM (inactive)
[9]
  GI50: > 100 µM (inactive)
[10]
  GI50: > 100 µM (inactive)
[11]
  GI50: > 100 µM (inactive)
[12]
  GI50: > 100 µM (inactive)
[13]
  GI50: 39 µM (inactive)
[14]
  GI50: 71.6 µM (inactive)
[15]
  GI50: 41.9 µM (inactive)

## CCCCCCCCCCCCCC(=O)CSCCNC(=O)CCNC(=O)[C@@H](O)C(C)(C)COP(=O)(O)OP(=O)(O)OCC1OC(n2cnc3c(N)ncnc32)C(O)C1OP(=O)(O)O (some centres undefined)
[1]
  GI50: 18.4 µM (inactive)
[2]
  GI50: 15.8 µM (inactive)
[3]
  GI50: 16 µM (inactive)
[4]
  GI50: 18.8 µM (inactive)
[5]
  GI50: 18.9 µM (inactive)
[7]
  GI50: 17.9 µM (inactive)
[8]
  GI50: 38 µM (inactive)
[9]
  GI50: 25 µM (inactive)
[16]
  GI50: 18.3 µM (inactive)
[10]
  GI50: 16.4 µM (inactive)
[11]
  GI50: 15.5 µM (inactive)
[12]
  GI50: 19.4 µM (inactive)
[13]
  GI50: 18.1 µM (inactive)
[14]
  GI50: 15 µM (inactive)
[15]
  GI50: 14.4 µM (inactive)

## Cc1cc(O)c2c(c1)C(O)(c1ccc3c(c1O)C(=O)c1c(O)cc(C)cc1C3(O)C1OC(CO)C(O)C(O)C1O)c1cccc(O)c1C2=O (centres undefined)
[1]
  GI50: 13.6 µM (inactive)
[2]
  GI50: 11.9 µM (inactive)
[3]
  GI50: 15.3 µM (inactive)
[4]
  GI50: 20.5 µM (inactive)
[5]
  GI50: 12.2 µM (inactive)
[6]
  GI50: 10.7 µM (inactive)
[7]
  GI50: 11.7 µM (inactive)
[8]
  GI50: 10.5 µM (inactive)
[9]
  GI50: 12.1 µM (inactive)
[16]
  GI50: 15 µM (inactive)
[11]
  GI50: 16.1 µM (inactive)
[12]
  GI50: 17.3 µM (inactive)
[13]
  GI50: 13.7 µM (inactive)
[14]
  GI50: 12.1 µM (inactive)
[15]
  GI50: 17.7 µM (inactive)

## C[C@H]1NC(=O)C2CCCCN2C(=O)CN(C)C(=O)CNC(=O)C2CCCCN2C(=O)[C@@H](NC(=O)c2nc3ccccc3cc2O)[C@@H](C)NC(=O)C2CCCCN2C(=O)CN(C)C(=O)CNC(=O)[C@@H]2CCCCN2C(=O)C1NC(=O)c1nc2ccccc2cc1O (some centres undefined)
[1]
  GI50: 0.166 µM (active)
[3]
  GI50: 0.251 µM (active)
[4]
  GI50: 0.347 µM (active)
[5]
  GI50: 0.181 µM (active)
[6]
  GI50: 2.59 µM (inactive)
[7]
  GI50: 0.182 µM (active)
[8]
  GI50: 0.209 µM (active)
[9]
  GI50: 0.0463 µM (active)
[16]
  GI50: 0.212 µM (active)
[10]
  GI50: 0.313 µM (active)
[11]
  GI50: 0.0865 µM (active)
[12]
  GI50: 0.225 µM (active)
[13]
  GI50: 0.185 µM (active)
[14]
  GI50: 0.0229 µM (active)
[15]
  GI50: 0.25 µM (active)

## Cc1cccc(C)c1NC(=O)C(=O)C1C(=O)NC(=O)NC1=O
[1]
  GI50: > 100 µM (inactive)
[2]
  GI50: > 100 µM (inactive)
[3]
  GI50: > 100 µM (inactive)
[4]
  GI50: > 100 µM (inactive)
[5]
  GI50: > 100 µM (inactive)
[6]
  GI50: > 100 µM (inactive)
[7]
  GI50: > 100 µM (inactive)
[8]
  GI50: > 100 µM (inactive)
[9]
  GI50: > 100 µM (inactive)
[16]
  GI50: > 100 µM (inactive)
[10]
  GI50: > 100 µM (inactive)
[11]
  GI50: > 100 µM (inactive)
[12]
  GI50: > 100 µM (inactive)
[13]
  GI50: > 100 µM (inactive)
[14]
  GI50: > 100 µM (inactive)
[15]
  GI50: > 100 µM (inactive)

## CC1CN1c1c(C(=O)/C=C/c2ccccc2)c(-c2ccccc2)nn(C)c1=O (centres undefined)
[1]
  GI50: 17.7 µM (inactive)
[2]
  GI50: 17.5 µM (inactive)
[3]
  GI50: 22 µM (inactive)
[4]
  GI50: 15.7 µM (inactive)
[5]
  GI50: 17.3 µM (inactive)
[6]
  GI50: 15.2 µM (inactive)
[7]
  GI50: 19.7 µM (inactive)
[8]
  GI50: 18.5 µM (inactive)
[9]
  GI50: 24.7 µM (inactive)
[16]
  GI50: 25.3 µM (inactive)
[10]
  GI50: 17.7 µM (inactive)
[11]
  GI50: 18.2 µM (inactive)
[12]
  GI50: 18.2 µM (inactive)
[13]
  GI50: 18.1 µM (inactive)
[14]
  GI50: 16.2 µM (inactive)
[15]
  GI50: 15.5 µM (inactive)

## Cc1ccc(-c2nc3ccccc3c(=O)n2NCC2(O)OCC(O)C(O)C2O)cc1 (centres undefined)
[1]
  GI50: > 100 µM (inactive)
[2]
  GI50: > 100 µM (inactive)
[4]
  GI50: > 100 µM (inactive)
[5]
  GI50: > 100 µM (inactive)
[6]
  GI50: > 100 µM (inactive)
[7]
  GI50: > 100 µM (inactive)
[8]
  GI50: > 100 µM (inactive)
[9]
  GI50: > 100 µM (inactive)
[16]
  GI50: > 100 µM (inactive)
[10]
  GI50: > 100 µM (inactive)
[11]
  GI50: > 100 µM (inactive)
[12]
  GI50: > 100 µM (inactive)
[13]
  GI50: > 100 µM (inactive)
[14]
  GI50: > 100 µM (inactive)
[15]
  GI50: > 100 µM (inactive)

## CCc1cccc(CC)c1NC(=O)C(=O)Cc1nc2ccccc2o1
[1]
  GI50: > 100 µM (inactive)
[2]
  GI50: > 100 µM (inactive)
[3]
  GI50: > 100 µM (inactive)
[4]
  GI50: > 100 µM (inactive)
[5]
  GI50: > 100 µM (inactive)
[6]
  GI50: > 100 µM (inactive)
[7]
  GI50: > 100 µM (inactive)
[8]
  GI50: > 100 µM (inactive)
[9]
  GI50: > 100 µM (inactive)
[16]
  GI50: > 100 µM (inactive)
[10]
  GI50: > 100 µM (inactive)
[11]
  GI50: > 100 µM (inactive)
[12]
  GI50: > 100 µM (inactive)
[13]
  GI50: > 100 µM (inactive)
[14]
  GI50: > 100 µM (inactive)
[15]
  GI50: > 100 µM (inactive)

## Clc1ccc(/C=C/c2csnn2)cc1
[1]
  GI50: > 100 µM (inactive)
[2]
  GI50: > 100 µM (inactive)
[3]
  GI50: > 100 µM (inactive)
[4]
  GI50: > 100 µM (inactive)
[5]
  GI50: > 100 µM (inactive)
[6]
  GI50: > 100 µM (inactive)
[7]
  GI50: > 100 µM (inactive)
[8]
  GI50: > 100 µM (inactive)
[9]
  GI50: > 100 µM (inactive)
[16]
  GI50: > 100 µM (inactive)
[10]
  GI50: > 100 µM (inactive)
[11]
  GI50: > 100 µM (inactive)
[12]
  GI50: > 100 µM (inactive)
[13]
  GI50: > 100 µM (inactive)
[14]
  GI50: > 100 µM (inactive)
[15]
  GI50: > 100 µM (inactive)

## COC(=O)C1CC(OC(C)=O)C=C2C(=O)CCC21 (centres undefined)
[1]
  GI50: 37.9 µM (inactive)
[2]
  GI50: 16.3 µM (inactive)
[3]
  GI50: 25.4 µM (inactive)
[5]
  GI50: 22.4 µM (inactive)
[6]
  GI50: 14.6 µM (inactive)
[7]
  GI50: 19.6 µM (inactive)
[8]
  GI50: 13.9 µM (inactive)
[9]
  GI50: 14.8 µM (inactive)
[16]
  GI50: 17.1 µM (inactive)
[10]
  GI50: 19.2 µM (inactive)
[11]
  GI50: 24.1 µM (inactive)
[12]
  GI50: 20.3 µM (inactive)
[13]
  GI50: 16.8 µM (inactive)
[14]
  GI50: 19.3 µM (inactive)
[15]
  GI50: 27.2 µM (inactive)

## COC1=CC(C)C2C[C@H]3O[C@H](O)C[C@H]4C(C)C(=O)C(O)C([C@@]2(C)C1=O)[C@@]34C (some centres undefined)
[1]
  GI50: > 100 µM (inactive)
[2]
  GI50: > 100 µM (inactive)
[4]
  GI50: > 100 µM (inactive)
[5]
  GI50: > 100 µM (inactive)
[6]
  GI50: > 100 µM (inactive)
[7]
  GI50: > 100 µM (inactive)
[8]
  GI50: > 100 µM (inactive)
[9]
  GI50: > 100 µM (inactive)
[16]
  GI50: > 100 µM (inactive)
[10]
  GI50: > 100 µM (inactive)
[11]
  GI50: > 100 µM (inactive)
[12]
  GI50: > 100 µM (inactive)
[13]
  GI50: > 100 µM (inactive)
[14]
  GI50: > 100 µM (inactive)
[15]
  GI50: > 100 µM (inactive)
